IC50 data for 33 molecules are collected here from US20140058103A1, “Inhibitors of PI3K-Delta and Methods of Their Use and Manufacture” (Exelixis, Inc., priority 2010, published 2014).

The target in the test is PI3K delta (Homo sapiens, UniProt O00329). In words: Luciferase-coupled chemiluminescence kinase assay (ATP consumption, KinaseGlo). In kind it is biochemical. The gist of the method: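 Compound, kinase and ATP (≤ KM) reacted 2 h at ambient temperature, then remaining ATP quantified with luciferase-luciferin (KinaseGlo) luminescence as percent consumed.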
PI3K delta, sequence (O00329 whole entry): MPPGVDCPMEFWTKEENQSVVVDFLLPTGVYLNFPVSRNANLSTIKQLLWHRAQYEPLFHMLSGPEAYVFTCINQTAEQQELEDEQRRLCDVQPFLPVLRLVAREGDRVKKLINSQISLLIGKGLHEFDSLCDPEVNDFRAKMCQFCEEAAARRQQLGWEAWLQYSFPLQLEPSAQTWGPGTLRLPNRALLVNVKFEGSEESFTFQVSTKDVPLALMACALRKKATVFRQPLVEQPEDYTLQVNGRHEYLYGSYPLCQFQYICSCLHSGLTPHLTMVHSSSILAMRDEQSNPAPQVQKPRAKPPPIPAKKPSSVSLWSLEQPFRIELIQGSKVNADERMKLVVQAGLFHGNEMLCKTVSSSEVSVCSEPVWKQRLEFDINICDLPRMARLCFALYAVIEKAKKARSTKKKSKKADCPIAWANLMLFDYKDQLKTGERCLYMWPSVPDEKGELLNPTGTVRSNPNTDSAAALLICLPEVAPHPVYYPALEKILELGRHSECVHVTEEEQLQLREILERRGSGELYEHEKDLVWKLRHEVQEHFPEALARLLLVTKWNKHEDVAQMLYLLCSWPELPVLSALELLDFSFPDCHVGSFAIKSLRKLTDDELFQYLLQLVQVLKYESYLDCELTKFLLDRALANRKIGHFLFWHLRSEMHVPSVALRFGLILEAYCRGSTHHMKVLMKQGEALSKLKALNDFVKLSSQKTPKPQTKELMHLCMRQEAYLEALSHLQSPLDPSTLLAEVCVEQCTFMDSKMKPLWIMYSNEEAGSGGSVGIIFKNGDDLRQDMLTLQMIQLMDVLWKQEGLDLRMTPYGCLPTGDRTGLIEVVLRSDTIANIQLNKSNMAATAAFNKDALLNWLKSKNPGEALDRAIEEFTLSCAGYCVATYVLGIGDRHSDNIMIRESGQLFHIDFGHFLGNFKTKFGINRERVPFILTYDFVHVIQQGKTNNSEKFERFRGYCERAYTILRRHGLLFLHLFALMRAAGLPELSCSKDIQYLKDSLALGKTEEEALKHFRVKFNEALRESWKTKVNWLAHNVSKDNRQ
PI3K delta, sequence (P27986 whole entry partner): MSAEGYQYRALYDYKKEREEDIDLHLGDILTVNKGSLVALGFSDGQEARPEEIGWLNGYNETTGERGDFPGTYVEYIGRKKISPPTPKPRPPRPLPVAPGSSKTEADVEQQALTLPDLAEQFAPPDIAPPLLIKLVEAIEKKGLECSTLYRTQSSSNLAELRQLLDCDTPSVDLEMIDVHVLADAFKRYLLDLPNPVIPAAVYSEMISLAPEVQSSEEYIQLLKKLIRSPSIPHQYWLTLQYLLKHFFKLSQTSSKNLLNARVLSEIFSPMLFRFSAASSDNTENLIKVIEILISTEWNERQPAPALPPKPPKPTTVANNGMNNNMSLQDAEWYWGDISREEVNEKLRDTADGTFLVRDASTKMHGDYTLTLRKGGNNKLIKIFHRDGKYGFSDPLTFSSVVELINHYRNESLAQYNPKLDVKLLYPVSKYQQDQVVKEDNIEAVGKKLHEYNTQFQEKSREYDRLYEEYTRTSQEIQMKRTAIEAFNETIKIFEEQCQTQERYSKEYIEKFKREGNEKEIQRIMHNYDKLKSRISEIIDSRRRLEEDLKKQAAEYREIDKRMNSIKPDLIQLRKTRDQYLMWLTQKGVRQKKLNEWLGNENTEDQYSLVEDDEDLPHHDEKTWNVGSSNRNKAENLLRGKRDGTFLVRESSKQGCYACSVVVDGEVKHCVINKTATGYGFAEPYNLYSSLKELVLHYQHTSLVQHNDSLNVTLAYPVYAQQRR
One may read the IC50 as the point on the concentration scale where inhibition reaches its midpoint. For `CCCn1cc(-c2nc3c(N4CCC5(CC4)C(=O)Nc4ccccc45)ncnc3n2CC)cn1` [Compound 251, 1′-[9-ethyl-8-(1-propyl-1H-pyrazol-4-yl)-9H-purin-6-yl]spiro[indole-3,4′-piperidin]-2(1H)-one], the IC50 was < 0.05 µM.

With `CCn1c(C(=O)NCC(C)C)nc2c(N3CCC4(CC3)C(=O)Nc3ccccc34)ncnc21` [Compound 164, 9-ethyl-N-(2-methylpropyl)-6-(2-oxo-1,2-dihydro-1′H-spiro[indole-3,4′-piperidin]-1′-yl)-9H-purine-8-carboxamide], the IC50 was < 0.05 µM.

Consider `Cn1cc(-c2nc3c(N4CCC(n5c(=O)[nH]c6ncccc65)CC4)ncnc3n2C)cn1` [Compound 269, 1-{1-[9-methyl-8-(1-methyl-1H-pyrazol-4-yl)-9H-purin-6-yl]piperidin-4-yl}-1,3-dihydro-2H-imidazo[4,5-b]pyridin-2-one], for which the IC50 was < 0.05 µM.

As to `CCNC(=O)c1nc2c(N3CCC4(CC3)C(=O)Nc3ccccc34)ncnc2n1CC` [Compound 219, N,9-diethyl-6-(2-oxo-1,2-dihydro-1′H-spiro[indole-3,4′-piperidin]-1′-yl)-9H-purine-8-carboxamide], the IC50 was < 0.05 µM.

For `Cn1c(-c2ccc(C(F)(F)F)nc2)nc2c(N3CCC(n4c(=O)[nH]c5ccccc54)CC3)ncnc21` [Compound 279, 1-(1-{9-methyl-8-[6-(trifluoromethyl)pyridin-3-yl]-9H-purin-6-yl}piperidin-4-yl)-1,3-dihydro-2H-benzimidazol-2-one], the IC50 was < 0.05 µM.

For `CNc1ccc(-c2nc3c(N4CCC(n5c(=O)[nH]c6ccccc65)CC4)ncnc3n2C)cn1` [Compound 353, 1-(1-{9-methyl-8-[6-(methylamino)pyridin-3-yl]-9H-purin-6-yl}piperidin-4-yl)-1,3-dihydro-2H-benzimidazol-2-one], the IC50 was < 0.05 µM.

The molecule `CC(C)CNC(=O)c1nc2c(N3CCC(n4c(=O)[nH]c5ccccc54)CC3)ncnc2n1CC(F)(F)F` [Compound 183, N-(2-methylpropyl)-6-[4-(2-oxo-2,3-dihydro-1H-benzimidazol-1-yl)piperidin-1-yl]-9-(2,2,2-trifluoroethyl)-9H-purine-8-carboxamide] showed an IC50 of 0.25 to 0.5 µM.

As for `CC(C)c1nnc(-c2nc3c(N4CCC5(CC4)C(=O)Nc4ccccc45)ncnc3n2C)o1` [Compound 174, 1′-{9-methyl-8-[5-(1-methylethyl)-1,3,4-oxadiazol-2-yl]-9H-purin-6-yl}spiro[indole-3,4′-piperidin]-2(1H)-one], the IC50 is < 0.05 µM.

With `Cn1c(-c2cccnc2)nc2c(N3CCC4(CC3)C(=O)Nc3ccccc34)ncnc21` [Compound 290, 1′-(9-methyl-8-pyridin-3-yl-9H-purin-6-yl)spiro[indole-3,4′-piperidin]-2(1H)-one], the IC50 is < 0.05 µM.

Consider `Cn1cc(-c2nc3c(N4CCN(S(=O)(=O)c5ccccc5C(F)(F)F)CC4)ncnc3n2C)cn1` [Compound 378], for which the IC50 lay in the range of 0.05 to 0.25 µM.

`Cn1c(-c2ccccc2)nc2c(N3CCC(n4c(=O)[nH]c5ccccc54)CC3)ncnc21` [Compound 267, 1-[1-(9-methyl-8-phenyl-9H-purin-6-yl)piperidin-4-yl]-1,3-dihydro-2H-benzimidazol-2-one] showed a half-maximal inhibitory concentration (IC50) of 0.5 to 1.5 µM.

Regarding `CCn1c(-c2cnn(C)c2C)nc2c(N3CCC4(CC3)C(=O)Nc3ccccc34)ncnc21` [Compound 261, 1′-[8-(1,5-dimethyl-1H-pyrazol-4-yl)-9-ethyl-9H-purin-6-yl]spiro[indole-3,4′-piperidin]-2(1H)-one], the IC50 is < 0.05 µM.

`Cn1c(C(=O)N2CCCCC2)nc2c(N3CCC4(CC3)C(=O)NCN4c3ccccc3)ncnc21` [Compound 9, 8-[9-methyl-8-(piperidin-1-ylcarbonyl)-9H-purin-6-yl]-1-phenyl-1,3,8-triazaspiro[4.5]decan-4-one] gave an IC50 of 0.05 to 0.25 µM.

`Cn1c(-c2ccncn2)nc2c(N3CCC(n4c(=O)[nH]c5ccccc54)CC3)ncnc21` [Compound 298, 1-[1-(9-methyl-8-pyrimidin-4-yl-9H-purin-6-yl)piperidin-4-yl]-1,3-dihydro-2H-benzimidazol-2-one] had an IC50 of 0.25 to 0.5 µM.

In turn, `Cn1c(C(=O)NCC2CC2)nc2c(N3CCC(n4c(=O)[nH]c5c(F)cccc54)CC3)ncnc21` [Compound 278, N-(cyclopropylmethyl)-6-[4-(4-fluoro-2-oxo-2,3-dihydro-1H-benzimidazol-1-yl)piperidin-1-yl]-9-methyl-9H-purine-8-carboxamide] had an IC50 of 0.05 to 0.25 µM.

For `Cn1c(C(=O)NCC2CC2)nc2c(N3CCC(n4c(=O)oc5ccccc54)CC3)ncnc21` [Compound 118, N-(cyclopropylmethyl)-9-methyl-6-[4-(2-oxo-1,3-benzoxazol-3(2H)-yl)piperidin-1-yl]-9H-purine-8-carboxamide], the IC50 lay in the range of 0.05 to 0.25 µM.

In turn, `COc1ccccc1CNC(=O)c1nc2c(N3CCC(n4c(=O)[nH]c5ccccc54)CC3)ncnc2n1C` [Compound 56, 9-methyl-N-{[2-(methyloxy)phenyl]methyl}-6-[4-(2-oxo-2,3-dihydro-1H-benzimidazol-1-yl)piperidin-1-yl]-9H-purine-8-carboxamide] gave an IC50 of 0.25 to 0.5 µM.

In turn, `Cn1c(C(=O)NC2CC2)nc2c(N3CCC4(CC3)C(=O)Nc3ccccc34)ncnc21` [Compound 14, N-cyclopropyl-9-methyl-6-(2-oxo-1,2-dihydro-1′H-spiro[indole-3,4′-piperidin]-1′-yl)-9H-purine-8-carboxamide] returned an IC50 of 0.05 to 0.25 µM.

Take `CCn1ncc(-c2nc3c(N4CCC(n5c(=O)[nH]c6c(F)cccc65)CC4)ncnc3n2C)c1C` [Compound 345, 1-{1-[8-(1-ethyl-5-methyl-1H-pyrazol-4-yl)-9-methyl-9H-purin-6-yl]piperidin-4-yl}-4-fluoro-1,3-dihydro-2H-benzimidazol-2-one]: the IC50 is < 0.05 µM.

For `Cn1c(-c2cc[nH]c2)nc2c(N3CCC(n4c(=O)[nH]c5ccccc54)CC3)ncnc21` [Compound 166, 1-{1-[9-methyl-8-(1H-pyrrol-3-yl)-9H-purin-6-yl]piperidin-4-yl}-1,3-dihydro-2H-benzimidazol-2-one], the IC50 is 0.5 to 1.5 µM.

Molecule `Cn1c(C(=O)NCCc2ccccn2)nc2c(N3CCC(n4c(=O)[nH]c5ccccc54)CC3)ncnc21` [Compound 51, 9-methyl-6-[4-(2-oxo-2,3-dihydro-1H-benzimidazol-1-yl)piperidin-1-yl]-N-(2-pyridin-2-ylethyl)-9H-purine-8-carboxamide] returned an IC50 of 0.5 to 1.5 µM.

As to `Cn1c(C(=O)NCCCc2ccccc2)nc2c(N3CCC(n4c(=O)[nH]c5ccccc54)CC3)ncnc21` [Compound 65, 9-methyl-6-[4-(2-oxo-2,3-dihydro-1H-benzimidazol-1-yl)piperidin-1-yl]-N-(3-phenylpropyl)-9H-purine-8-carboxamide], the IC50 was 0.5 to 1.5 µM.

Consider `CCn1cc(-c2nc3c(N4CCC(n5c(=O)[nH]c6ncccc65)CC4)ncnc3n2C)cn1` [Compound 322, 1-{1-[8-(1-ethyl-1H-pyrazol-4-yl)-9-methyl-9H-purin-6-yl]piperidin-4-yl}-1,3-dihydro-2H-imidazo[4,5-b]pyridin-2-one], for which the IC50 is < 0.05 µM.

Regarding `Cn1c(C(=O)NCc2ccc3c(c2)OCO3)nc2c(N3CCC(n4c(=O)[nH]c5ccccc54)CC3)ncnc21` [Compound 50, N-(1,3-benzodioxol-5-ylmethyl)-9-methyl-6-[4-(2-oxo-2,3-dihydro-1H-benzimidazol-1-yl)piperidin-1-yl]-9H-purine-8-carboxamide], the IC50 lay in the range of 0.25 to 0.5 µM.

As for `CCOC(=O)Cn1cc(-c2nc3c(N4CCC(n5c(=O)[nH]c6ccccc65)CC4)ncnc3n2C)cn1` [Compound 181, ethyl (4-{9-methyl-6-[4-(2-oxo-2,3-dihydro-1H-benzimidazol-1-yl)piperidin-1-yl]-9H-purin-8-yl}-1H-pyrazol-1-yl)acetate], the IC50 fell in the range of 0.25 to 0.5 µM.

The molecule `Cn1c(C(=O)NCCO)nc2c(N3CCC4(CC3)C(=O)Nc3ccccc34)ncnc21` [Compound 25, N-(2-hydroxyethyl)-9-methyl-6-(2-oxo-1,2-dihydro-1′H-spiro[indole-3,4′-piperidin]-1′-yl)-9H-purine-8-carboxamide] returned an IC50 of 0.25 to 0.5 µM.

Regarding `Cc1ccoc1-c1nc2c(N3CCC(n4c(=O)[nH]c5ccccc54)CC3)ncnc2n1C` [Compound 128, 1-{1-[9-methyl-8-(3-methylfuran-2-yl)-9H-purin-6-yl]piperidin-4-yl}-1,3-dihydro-2H-benzimidazol-2-one], the IC50 lay in the range of 0.25 to 0.5 µM.

In turn, `Cn1cc(-c2nc3c(N4CCN(S(=O)(=O)c5ccccc5)CC4)ncnc3n2C)cn1` [Compound 355, 9-methyl-8-(1-methyl-1H-pyrazol-4-yl)-6-[4-(phenylsulfonyl)piperazin-1-yl]-9H-purine] showed an IC50 of 0.25 to 0.5 µM.

Regarding `CCn1cc(-c2nc3c(N4CCN(c5ccccc5)CC4)ncnc3n2C)cn1` [Compound 368, 8-(1-ethyl-1H-pyrazol-4-yl)-9-methyl-6-(4-phenylpiperazin-1-yl)-9H-purine], the IC50 is 0.5 to 1.5 µM.

In the case of `Cn1cc(-c2nc3c(N4CCC(C#N)(c5ccccc5)CC4)ncnc3n2C)cn1` [Compound 263, 1-[9-Methyl-8-(1-methyl-1H-pyrazol-4-yl)-9H-purin-6-yl]-4-phenylpiperidine-4-carbonitrile], the IC50 fell in the range of 0.05 to 0.25 µM.

For the molecule `Cn1c(C(=O)NC2CCC2)nc2c(N3CCC(n4c(=O)[nH]c5ccccc54)CC3)ncnc21` [Compound 44, N-cyclobutyl-9-methyl-6-[4-(2-oxo-2,3-dihydro-1H-benzimidazol-1-yl)piperidin-1-yl]-9H-purine-8-carboxamide], the IC50 was 0.05 to 0.25 µM.

`CCn1c(C(=O)N2CC[C@@H](F)C2)nc2c(N3CCC(n4c(=O)[nH]c5ccccc54)CC3)ncnc21` [Compound 186, 1-[1-(9-ethyl-8-{[(3R)-3-fluoropyrrolidin-1-yl]carbonyl}-9H-purin-6-yl)piperidin-4-yl]-1,3-dihydro-2H-benzimidazol-2-one]: the IC50 was < 0.05 µM.

As for `Cn1c(C(=O)NCC2CC2)nc2c(N3CCCC(n4c(=O)[nH]c5ccccc54)C3)ncnc21` (stereo not drawn) [Compound 256, N-(cyclopropylmethyl)-9-methyl-6-[3-(2-oxo-2,3-dihydro-1H-benzimidazol-1-yl)piperidin-1-yl]-9H-purine-8-carboxamide], the IC50 lay in the range of 0.25 to 0.5 µM.
